The values below come from patent publication US10526662B2, “FALZ for use as a target for therapies to treat cancer” (Sutter Bay Hospitals, priority 2013, dated 2020).

Data set [1] has as its system U251 human GBM cells. Briefly: Subcutaneous U251 tumor growth in nude mice. Format: in vivo. To be noted: subcutaneous inoculation. The procedure:
(§1) All animal care was in accordance with institutional guidelines and a protocol that was approved by the University of California San Francisco Committee on Animal Research and California Pacific Medical Center Research Institute. Groups of 45-day-old female C57B1/6 (Charles River) were inoculated by tail vein injection with 30,000 B16-F10 BPTF stables cells. 1×10^6 1205-Lu cells were injected by tail vain in nude mice. For subcutaneous injection 1×10^6 1205-Lu, B16-F10, or C8161.9 cells and 2×10^6 U251 cells were injected, respectively.

In data set [2] the test system is U251 human GBM cells. Kind of data set: Apoptosis, U251. As to conditions: U251, p<0.02. The format is cell-based.
The test system of a further data set is BCL2, BCL-XL and CCND2. Kind of data set: Expression of BCL2, BCL-XL and CCND2 in GBM cells. Format: cell-based, human. As to conditions: GBM cells (U251). The procedure:
(§2) mRNAs were assayed using the TaqMan Gene Expression Assays in accordance with the manufacturer's instructions (Applied Biosystems). TaqMan probes for BPTF, HPRT1, CCND2, BCL-XL, TWIST1, RAB14, CEBPB, CHI3L1, DLL3, OLIG2, PDGFRA and BCL2 were purchased from Applied Biosystems (Foster City, Calif.).
(§3) Western blot analysis was performed. Target proteins were detected by using specific antibodies against BPTF (Bethyl Laboratories Montgomery, TX), BCL2, and GAPDH (Santa Cruz Biotechnology, Santa Cruz, Calif.), and ERK1/2, pERK1/2, CCND2, BCL-XL, p90RSK (Cell Signaling Technology, Danvers, Mass.).

Data set [3] has as its system 1205-Lu human melanoma cells. Kind of data set: Lung metastatic tumor burden after intravenous inoculation of 1205-Lu cells. Format: in vivo. As to conditions: nude mice. As for the experimental part: as §1
The test system of data set [4] is 1205-Lu human melanoma cells. Kind of data set: Cell survival assay, 1205-Lu. The format is cell-based. As for the experimental part:
(§4) Cell viability and colony formation were performed and cell cycle analysis was performed as described using common techniques in the art. Cells were treated with varying concentrations of vemurafenib for 72 hrs or dabrafenib (Chemitek, Indianapolis, Ind.) for 48 hrs or as indicated. DMSO was used as a vehicle.

The test system of data set [5] is BPTF. Briefly: qRT-PCR of BPTF expression in 1205-Lu cells. Format: cell-based. To be noted: 1205-Lu human melanoma cells (mutant BRAF). As for the experimental part:
as §2
(§5) Selected shRNAs cloned into the pLKO1-vector were co-transfected into 293T cells along with expression vectors containing the GAG/POL, REV and VSVG genes. Lentiviruses were harvested 48 hrs after transfection. Sub-confluent human melanoma or glioblastoma cells were infected with each harvested lentiviruses in the presence of 8 μg/ml of polybrene, and were selected in 1 μg/ml of puromycin at 48 hrs post-infection in their respective culture medium. B16-F10 cells were transfected with BPTF shRNA1, BPTF shRNA 2 or Neg shRNA vectors and stable transformants were selected with 2 ug/ml of puromycin.
A general note: Quantitative PCR measures a nucleic acid by following its amplification.

Data set [6] has as its system U251 human GBM cells. Briefly: Cell cycle analysis, U251. Format: cell-based. To be noted: U251, p<0.01. The procedure: as §4
For data set [7], the system named is BPTF. Briefly: qRT-PCR of BPTF expression in U251 cells. As to conditions: U251 human GBM cells. The format is cell-based. As for the experimental part: as §2, §5
The subject of data set [8] is phosphorylated ERK1/2 and p90RSK. Kind of data set: Western blot of phosphorylated ERK1/2 and p90RSK in GBM cells. The format is cell-based, human. As to conditions: GBM cells (U251). The procedure: as §3
A general note: In western blotting, separated proteins are transferred to a membrane and probed.

Data set [9] relates to U251 human GBM cells. Briefly: Matrigel invasion assay, U251. Format: cell-based. The procedure: (§6) A Matrigel assay for tumor invasion was performed using routine techniques. For B16-F10, 1205-Lu and C8161.9 cells, insert chambers were coated with 15 μl matrigel at 6 mg/ml protein, 17 μl and 7 mg/ml for C8161.9 cells and 15 μl and 5 mg/ml for 1205-Lu and U251 cell lines.
Data set [10] relates to 1205-Lu human melanoma cells. Briefly: Colony formation assay, 1205-Lu. Format: cell-based. To be noted: p<0.02. As for the experimental part:
as §4

The test system of data set [11] is 1205-Lu human melanoma cells. Kind of data set: Apoptosis, 1205-Lu. To be noted: p<0.02. The format is cell-based.
Data set [12] has as its system 1205-Lu human melanoma cells. Briefly: Subcutaneous tumor growth of 1205-Lu cells in nude mice. The format is in vivo. As to conditions: 1205-Lu in nude mice, vs control shRNA-expressing cells. The procedure:
as §1

Data set [13] has as its system U251 human GBM cells. Briefly: Cell survival and colony formation, U251. Format: cell-based. The procedure:
as §4

In data set [14] the test system is 1205-Lu human melanoma cells. Kind of data set: Matrigel invasion assay, 1205-Lu. Format: cell-based. The procedure: as §6
In data set [15] the test system is 1205-Lu human melanoma cells. Briefly: Cell cycle analysis, 1205-Lu. Format: cell-based. To be noted: vs control shRNA vector. As for the experimental part:
as §4

The next data set concerns 1205-Lu melanoma cells. Briefly: BRAF inhibitor sensitivity of 1205-Lu cells with modulated BPTF expression. Format: cell-based, human. To be noted: for reduction in sensitivity to drug on overexpression of BPTF: 1205-Lu overexpressing BPTF; for increase in sensitivity of BPTF shRNA-expressing cells to drug: 1205-Lu, vs control shRNA-expressing cells. As for the experimental part: as §4

The subject of data set [16] is BPTF. Briefly: qRT-PCR of BPTF expression in B16-F10 cells. Format: cell-based. As to conditions: B16-F10 murine melanoma cells, mRNA level. As for the experimental part: as §2, §5
Data set [17] has as its system B16-F10 murine melanoma cells. Kind of data set: cDNA microarray gene expression profiling of B16-F10 clones. Format: cell-based. The source says:
Total RNA was extracted from cells using the RNeasy kit (Qiagen, Valencia, Calif.). Ten micrograms of total RNA, along with universal mouse reference RNA (Stratagene, Santa Clara, Calif.), was converted to aminoallyl-modified cDNA by oligo(dT)-primed polymerization using SuperScript II reverse transcriptase (Invitrogen), coupled to N-hydroxysuccinimidyl esters of Cy3 or Cy5 (Amersham Pharmacia, Pittsburgh, Pa.), and then hybridized to a microarray slide as described (Haqq et al., 2005). After linear normalization, log (base 2) transformation, and supervised hierarchical clustering, the resulting cluster data table was imported into the significance analysis of microarrays software package. Delta was chosen to limit the output gene list so that 5% predicted false positives would be included.

The mark [18] stands for this setting: B16-F10 clones stably expressing shRNA vs control vector.

Consider “BPTF shRNA 3: shRNA targeting human BPTF, ATTTAGATTCATCATAAGGCG (SEQ ID NO:5) (listed as DNA, chemistry not fully specified)”, for which the “U251 tumor cell growth” value in the data set with U251 human GBM cells [1] is reported as “highly significant reduction”. In the data set on U251 human GBM cells [2], the apoptosis entry is listed as “induction”. The “expression of BCL2, BCL-XL and CCND2” value in the data set with BCL2, BCL-XL and CCND2 is “suppression”. In data set [3], the “reduction in the metastatic tumor burden in the lungs” value is listed as 66%. Also, the cell survival result in [4] is “suppression”. For the same compound, the BPTF expression entry in the data set on BPTF [5] is recorded as “significant suppression”; with BPTF [7], “Stable suppression”. Besides, the cell cycle distribution result with U251 human GBM cells [6] is “significant G1/G0 cell cycle arrest”; in data set [15] it was “G1/G0 cell cycle arrest and a significant reduction in S-phase”. For the same compound, the “phosphorylated ERK1/2 and p90RSK” value in data set [8] is on record as “significant suppression”. Further, the invasiveness entry in the data set with U251 human GBM cells [9] is recorded as “significantly reduced”. Moreover, in data set [10], the colony formation ability result is recorded as “suppression”. Also, the apoptotic index entry in data set [11] is on record as “significantly increased”. For the same compound, in data set [12], the “subcutaneous tumor cell growth” value was “considerably suppressed”. For the same compound, in the data set with U251 human GBM cells [13], the “proliferation (cell survival and colony formation)” value is recorded as “significantly reduced”. Further, in [14], the “invasiveness into Matrigel” value is “significant decrease”.
Consider `CC(C)(C)c1nc(-c2cccc(NS(=O)(=O)c3c(F)cccc3F)c2F)c(-c2ccnc(N)n2)s1` [dabrafenib], for which, in the data set with 1205-Lu melanoma cells, the “reduction in sensitivity to drug on overexpression of BPTF” value stood at 3.4 fold and the “increase in sensitivity of BPTF shRNA-expressing cells to drug” value turned out to be 2.8 fold.
Consider “BPTF shRNA 1: shRNA targeting BPTF, TGGCTGTGATCGGTGTCAGAATTGGTACC (SEQ ID NO:3); used for the murine cell line (listed as DNA, chemistry not fully specified)”, for which the “BPTF expression (qRT-PCR)” value with BPTF [16] is “suppressed significantly”.
In the case of `CCCS(=O)(=O)Nc1ccc(F)c(C(=O)c2c[nH]c3ncc(-c4ccc(Cl)cc4)cc23)c1F` [vemurafenib], in the data set on 1205-Lu melanoma cells, the “reduction in sensitivity to drug on overexpression of BPTF” value stood at 2.5 fold and the “increase in sensitivity of BPTF shRNA-expressing cells to drug” value is listed as 3.2 fold.
On to “BPTF shRNA 2: shRNA targeting BPTF, GGTGATGAAGCATAATGCTGTA ATAGAAC (SEQ ID NO:4); used for the murine cell line (GGTGATGAAGCATAATGCTGTAATAGAAC; listed as DNA, chemistry not fully specified)”, for which the “BPTF expression (qRT-PCR)” value in the data set on BPTF [16] was “suppressed significantly”. Besides, in data set [17] (B16-F10, microarray, confirmed by qRT-PCR and western blot), the “Bcl-xl and Ccnd2 expression” value is given as “downregulated”. In addition, in data set [17] (setting [18]), the “number of genes overexpressed” value was determined as 1008 genes and the “number of genes with downregulated expression” value was found to be 27 genes.
